Patent US8906888B2, “Low-calcemic 16,23-diene 25-oxime analogs of 1α,25-dihydroxy vitamin D3” (Cytochroma Inc., priority 2005, dated 2014)

Key:
SCC-25 cells = assay: [3H]-Thymidine proliferation assay with SCC-25 cells; type: cell-based; details: head and neck cancer cells, 3 days, 3H-thymidine incorporation
Protocol: 1. Preparation of Cell Suspension • When SCC-25 cells were 70-80% confluent, aspirated media. Washed the cells with 1×PBS. Trypsinized with trypsin-EDTA from the plate, collected cells from the tissue culture flask, centrifuged (500×g, 5 min) and resuspended in media.
2. Cell Plating. • Counted the cells and adjusted the cell density to 10,000/ml. Added 200 μl per well in a 96 well plate. Incubated plate for 24 h at 37° C. in a humidified atmosphere plus 5% CO2. Aspirated used media and replaced with 175 μl per well with media.
3. Substrate Addition. • Added 25 μl of compound (final concentration 10^−7 M, 5×10^−8 M, 10^−8 M, 5×10^−9 M, 10^−10 M or 0 M) into each designated well. Incubated plates for 3 days at 37° C. in a humidified atmosphere plus 5% CO2.
(§1) 4. ^3H-Thymidine Incorporation. • Added ^3H-thymidine at 0.02 μCi per well and incubated at 37° C. in a humidified atmosphere plus 5% CO2 for 6 h.
(§2) 5. Plate Harvesting. • Aspirated all media and washed cells with 1×PBS. Trypsinized cells for 30 min at 37° C. in a humidified atmosphere plus 5% CO2. Harvested cells onto a 96 well filter plate (Millipore) using a Tomtec Cell Harvestor, according to manufacturers instructions.
6. Scintillation Counting. • Added 25 μl of scintillation fluid per well. Counted the plate using a scintillation counter. Results: Compound (20R)-1(e) inhibited SCC-25 cell proliferation.

BxPC-3 cells = assay: [3H]-Thymidine proliferation assay with BxPC-3 cells; type: cell-based; details: pancreatic cancer cells, 3 days, 3H-thymidine incorporation
Protocol: 1. Preparation of Cell Suspension • When BxPC-3 cells were 70-80% confluent, aspirated media. Washed the cells with 1×PBS. Trypsinized with trypsin-EDTA from the plate, collected cells from the tissue culture flask, centrifuged (500×g, 5 min) and resuspended in media.
2. Cell Plating. • Counted the cells and adjusted the cell density to 2,000/ml. Added 200 μl per well in a 96 well plate. Incubated plate for 24 h at 37° C. in a humidified atmosphere plus 5% CO2. Aspirated used media and replaced with 175 μl per well with media.
3. Substrate Addition. • Added 25 μl of compound (final concentration 10^−7 M, 5×10^−8 M, 10^−8M, 5×10^−9 M, 10^−10 M or 0 M) into each designated well. Incubated plates for 3 days at 37° C. in a humidified atmosphere plus 5% CO2.
as §1, §2
6. Scintillation Counting. • Added 25 μl of scintillation fluid per well. Counted the plate using a scintillation counter. Results: Compound (20R)-I(e) inhibited BxPC-3 cell proliferation.

[1] = Pharmacokinetics after i.v. administration in rats; type: in vivo; details: rat, iv, male Wistar rats, 16 mg/kg B.W.
Protocol: A formulation of compound (20R)-I(e) dissolved in saline (0.9% NaCl): propylene glycol:ethanol (5:3:2; v/v/v) was prepared at a concentration of 20 mg/ml.
Nine male Wistar rats (150-200 g) were fasted 8 hours prior to the initiation of the study. At the initiation of the study, the nine rats received 0.8 ml/kg body weight (B.W.) of the dosing formulation by intravenous (i.v.) injection to deliver 16 mg of compound (20R)-I(e)/kg B.W. Blood was collected from three animals at 0 (day-1), 5, 15, 30, 60, 120, 180 and 240 minutes post dosing. At each time point, 1 ml of blood was collected from the orbital sinus in unpreserved Microtainer tubes. Separated serum samples were kept frozen at −80° C. until analysis. The concentration of compound (20R)-I(e) in the serum samples was quantified using a High Performance Liquid Chromatographic method with Mass Spectroscopy detection (LC MS/MS). An internal standard was added to an aliquot of […] of serum sample and extracted using solid phase extraction (SPE). Samples were passed through C18-SPE cartridges then compound (20R)-I(e) and the internal standard were eluted with 1 ml of methanol. Extracts were evaporated to dryness under nitrogen. The residues were reconstituted in […] of methanol:water (8:2; v/v) and analyzed by LC MS/MS. (iii) Results: Summary of the calculated pharmacokinetic parameters for the i.v. administration of a 16 mg/kg B.W. dose of compound (20R)-I(e) is in the Table below. The Area-Under-Curve (AUC) was calculated from T=0 to 240 min. The maximum concentration (Cmax) was determined from the mean serum concentration versus time profile. The elimination half life (T1/2) was calculated from the elimination phase of the concentration versus time profile assuming first order kinetic elimination.

Cmax ([1]; mean serum concentration): 38.9 ng/mL
AUC ([1]; serum, T=0 to 240 min): 39.6 ng·h/mL
half-life ([1]; serum, first order elimination assumed, read-out: T1/2 (elimination half life) (converted)): 15 min
Structure (SMILES): C=C1/C(=C\C=C2/CCC[C@]3(C)C([C@H](C)C/C=C/C(=NOC)C(C)(C)C)=CC[C@@H]23)C[C@@H](O)C[C@@H]1O [(20R)-I(e)]
Inhibition of SCC-25 cell proliferation (SCC-25 cells): inhibited
Inhibition of BxPC-3 cell proliferation (BxPC-3 cells): inhibited
